Source: patent US20110105389A1 (priority 2009, published 2011)

What follows are compounds tested against T1, human ghrelin receptor (GRLN, growth hormone secretagogue receptor, hGHS-R1a) (Homo sapiens, UniProt Q92847) (assay: Competitive radioligand binding assay (ghrelin receptor), Method B1). Conditions: not given.
T1 construct: purchased PerkinElmer BioSignal #RBHGHSM, lot#1887; host or cells: HEK-293 cells, stably transfected (membranes)
Procedure: Multiscreen Harvest plates-GF/C (Millipore, #MAHFC1H60) • 4. […] Bottom seal (Millipore, #MATAH0P00) • 7. […] Binding Buffer: 25 mM Hepes (pH 7.4), 1 mM CaCl2, 5 mM MgCl2. 2.5 mM EDTA, 0.4% BSA
Competition experiments were performed in a 300 μl filtration assay format. • 1. 220 μL of membranes diluted in binding buffer • 2. 40 μL of compound diluted in binding buffer • 3.
Compounds were provided frozen on dry ice at a stock concentration of 10 mM diluted in 100% DMSO and stored at −80° C. until the day of testing. On the test day, compounds were allowed to thaw at rt overnight and then diluted in assay buffer according to the desired test concentrations. Under these conditions, the maximal final DMSO concentration in the assay was 0.1%.
Plates were sealed with TopSeal-A, vortexed gently and incubated at rt for 30 min. The reaction was arrested by filtering samples through Multiscreen Harvest plates (pre-soaked in 0.5% polyethyleneimine) using a Tomtec Harvester, washed 9 times with 500 μL of cold 50 mM Tris-HCl (pH 7.4, 4° C.), and then plates were air-dried in a fumehood for 30 min. A bottom seal was applied to the plates prior to the addition of 25 μL of MicroScint-0 to each well. Plates were than sealed with TopSeal-A and counted for 30 sec per well on a TopCount Microplate Scintillation and Luminescence Counter (PerkinElmer) using a count delay of 60 sec. Results were expressed as counts per minute (cpm).
Data were analyzed by GraphPad Prism (GraphPad Software, San Diego, Calif.) using a variable slope non-linear regression analysis. […] Dmax values were calculated using the following formula: […]

T1 sequence (Q92847 whole entry): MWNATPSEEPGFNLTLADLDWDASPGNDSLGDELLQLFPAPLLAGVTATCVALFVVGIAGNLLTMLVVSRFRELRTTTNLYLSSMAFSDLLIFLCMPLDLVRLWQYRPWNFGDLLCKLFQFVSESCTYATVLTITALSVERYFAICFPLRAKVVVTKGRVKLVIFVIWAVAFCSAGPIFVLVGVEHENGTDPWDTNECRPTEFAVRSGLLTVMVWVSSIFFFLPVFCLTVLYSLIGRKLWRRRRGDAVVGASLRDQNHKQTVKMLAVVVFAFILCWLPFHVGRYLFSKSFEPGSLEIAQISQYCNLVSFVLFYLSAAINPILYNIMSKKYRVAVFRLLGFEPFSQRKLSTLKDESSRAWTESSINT

Structure (SMILES)	IC50 [nM]	Ki [nM]
CCC(C)[C@@H]1NCCOc2ccccc2CC[C@@H](C)NC(=O)[C@@H](Cc2ccccc2)NC(=O)[C@H](C(C)O)N(C)C1=O (some centres unmarked) [Compound 1342]	1 to 10	1 to 10
CC[C@H](C)[C@@H]1NC/C=C/c2ccccc2CCCNC(=O)[C@@H](Cc2ccccc2)NC(=O)[C@H]([C@H](C)O)N(C)C1=O [Compound 1346]	> 500	100 to 500

Same assay, conditions: Ghrelin receptor binding activity, Method B1

Structure (SMILES)	Ki [nM]	IC50 [nM]
CC(O)[C@H]1C(=O)N[C@H](Cc2ccccc2)C(=O)NC/C=C/c2ccccc2OCCN[C@@H](CO)C(=O)N1C (some centres unmarked) [Compound 1305]	> 500	
CCC(C)[C@@H]1NCCOc2cccnc2CCCNC(=O)[C@@H](Cc2ccccc2)NC(=O)[C@H](C(C)O)N(C)C1=O (some centres unmarked) [Compound 1311]	> 500	
CCC(C)[C@@H]1NC[C@H](C)Oc2ccccc2/C=C/CNC(=O)[C@@H](Cc2ccccc2)NC(=O)[C@H](C(C)O)N(C)C1=O (some centres unmarked) [Compound 1314]	100 to 500	100 to 500
CC(O)[C@H]1C(=O)N[C@H](Cc2ccccc2)C(=O)NC/C=C/c2ccccc2OCCN[C@@H](C2CCCC2)C(=O)N1C (some centres unmarked) [Compound 1320]	10 to 100	10 to 100
CCC(C)[C@H]1C(=O)N(C)[C@@H](C(C)O)C(=O)N[C@H](Cc2ccccc2)C(=O)NC/C=C/c2ccccc2OCCN1C (some centres unmarked) [Compound 1323]	10 to 100	
CCC(C)[C@@H]1NCCOc2ccccc2/C=C/CNC(=O)[C@@H](Cc2ccc(N)cc2)NC(=O)[C@H](C(C)O)N(C)C1=O (some centres unmarked) [Compound 1328]	10 to 100	100 to 500
CCC(C)[C@@H]1NCCOc2ccccc2/C=C/CNC(=O)[C@@H](Cc2ccncc2)NC(=O)[C@H](C(C)O)N(C)C1=O (some centres unmarked) [Compound 1330]	10 to 100	100 to 500
CCC(C)[C@@H]1NCCOc2ccccc2/C=C/CNC(=O)[C@@H](Cc2ccco2)NC(=O)[C@H](C(C)O)N(C)C1=O (some centres unmarked) [Compound 1331]	10 to 100	10 to 100
CCC(C)[C@@H]1NCCOc2ccccc2C[C@@H](O)CNC(=O)[C@@H](Cc2ccccc2)NC(=O)[C@H](C(C)O)N(C)C1=O (some centres unmarked) [Compound 1339]	100 to 500	100 to 500
CCC(C)[C@@H]1NCCOc2cc(F)ccc2CC[C@H](C)NC(=O)[C@@H](Cc2ccccc2)NC(=O)[C@H](C(C)O)N(C)C1=O (some centres unmarked) [Compound 1344]	10 to 100	
CC(O)[C@H]1C(=O)N[C@H](Cc2ccccc2)C(=O)N[C@@H](C)CCc2ccccc2OCCN[C@@H](C2CC2)C(=O)N1C (some centres unmarked) [Compound 1345]	10 to 100	100 to 500
CC(C)C1NCCOc2cc(F)ccc2C=CCNC(=O)C(C(C)c2ccccc2)NC(=O)C(C(C)O)N(C)C1=O (centres unmarked) [Compound 1689]		10 to 100
CCCC1CCc2ccccc2OCCNC(C(C)C)C(=O)N(C)C(C(C)O)C(=O)NC(Cc2ccccc2)C(=O)N1 (centres unmarked) [Compound 1694]		> 500
CCC1CCc2ccc(F)cc2OC(C)CNC(C2(C)CC2)C(=O)N(C)C(C(C)O)C(=O)NC(Cc2c[nH]c3ccccc23)C(=O)N1 (centres unmarked) [Compound 1706]		100 to 500
CC(C)[C@@H]1NCCOc2ccccc2CC[C@H](C(C)C)NC(=O)[C@@H](Cc2cccc(F)c2)NC(=O)[C@H](C(C)O)N(C)C1=O (some centres unmarked) [Compound 1708]		100 to 500
CC[C@@H]1C#Cc2ccc(Cl)cc2OCCN[C@@H](C(C)C)C(=O)N(C)[C@@H](C(C)O)C(=O)N[C@H](Cc2c[nH]c3ccccc23)C(=O)N1 (some centres unmarked) [Compound 1709]		10 to 100
CCC(C)[C@@H]1NCCO[C@H]2CCC[C@H]2CCCNC(=O)[C@@H](Cc2ccc(Cl)cc2)NC(=O)[C@H](C(C)O)N(C)C1=O (some centres unmarked) [Compound 1714]		1 to 10
CC[C@@H]1CCc2ccc(F)cc2O[C@H](C)CN[C@@H](C2(C)CC2)C(=O)N(C)[C@@H](C(C)O)C(=O)N[C@H](Cc2cccc(F)c2)C(=O)N1 (some centres unmarked) [Compound 1721]		100 to 500
CC[C@@H]1CCc2c(F)cccc2OCCN[C@@H](C(C)C)C(=O)N(C)[C@@H](C(C)O)C(=O)N[C@H](Cc2ccccc2)C(=O)N1 (some centres unmarked) [Compound 1722]		10 to 100
CC[C@@H]1CCc2ccc(OC)cc2OCCN[C@@H](C(C)C)C(=O)N(C)[C@@H](C(C)O)C(=O)N[C@H](Cc2c[nH]c3ccccc23)C(=O)N1 (some centres unmarked) [Compound 1727]		> 500
CC(O)[C@H]1C(=O)N[C@H](Cc2ccc(Cl)cc2)C(=O)NC/C=C/c2ccccc2OCCN[C@@H](C2CC2)C(=O)N1C (some centres unmarked) [Compound 1728]		10 to 100
CCC(C)C1NCCOc2ccccc2C=CCNC(=O)C(Cc2ccc(OC)cc2)NC(=O)C(C(C)O)N(C)C1=O (centres unmarked) [Compound 1735]		10 to 100
CCC(C)C1NCCOc2ccccc2C=CCNC(=O)C(Cc2ccc(C)cc2)NC(=O)C(C(C)O)N(C)C1=O (centres unmarked) [Compound 1736]		10 to 100

The next lines start with the values.

Ki [nM]	IC50 [nM]	Structure (SMILES)
100 to 500		CCC(C)[C@@H]1NC[C@@H](C)Oc2ccccc2CCCNC(=O)[C@@H](Cc2ccccc2)NC(=O)[C@H](C(C)O)N(C)C1=O (some centres unmarked) [Compound 1301]
10 to 100	10 to 100	CCC(C)[C@@H]1NC[C@@H](C)Oc2ccccc2/C=C/CNC(=O)[C@@H](Cc2ccccc2)NC(=O)[C@H](C(C)O)N(C)C1=O (some centres unmarked) [Compound 1313]
10 to 100	100 to 500	CCC(C)[C@@H]1NCCOc2ccccc2/C=C/CNC(=O)[C@@H](Cc2c[nH]cn2)NC(=O)[C@H](C(C)O)N(C)C1=O (some centres unmarked) [Compound 1329]
100 to 500	100 to 500	CCC(C)[C@@H]1N[C@H](C)COc2ccccc2CCCNC(=O)[C@@H](Cc2ccccc2)NC(=O)[C@H](C(C)O)N(C)C1=O (some centres unmarked) [Compound 1347]
100 to 500	> 500	CCC(C)[C@@H]1N[C@@H](C)COc2ccccc2CCCNC(=O)[C@@H](Cc2ccccc2)NC(=O)[C@H](C(C)O)N(C)C1=O (some centres unmarked) [Compound 1348]
10 to 100		CCC(C)[C@@H]1NCCOc2ccccc2CCC(C(F)(F)F)NC(=O)[C@@H](Cc2ccccc2)NC(=O)[C@H](C(C)O)N(C)C1=O (some centres unmarked) [Compound 1349]
	100 to 500	CC(C)C1CCc2ccccc2OCCNC(C(C)C)C(=O)N(C)C(C(C)O)C(=O)NC(Cc2ccccc2)C(=O)N1 (centres unmarked) [Compound 1695]
	> 500	CCCC1CCc2ccccc2OCCNC(C(C)C)C(=O)N(C)C(C(C)O)C(=O)NC(Cc2cccc(F)c2)C(=O)N1 (centres unmarked) [Compound 1696]
	100 to 500	CCCC1CCc2ccccc2OCCNC(C(C)C)C(=O)N(C)C(C(C)O)C(=O)NC(Cc2c[nH]c3ccccc23)C(=O)N1 (centres unmarked) [Compound 1697]
	10 to 100	CC(C)C1CCc2ccccc2OCCNC(C(C)C)C(=O)N(C)C(C(C)O)C(=O)NC(Cc2c[nH]c3ccccc23)C(=O)N1 (centres unmarked) [Compound 1698]
	1 to 10	CCC(C)[C@@H]1NCCO[C@H]2CCCC[C@H]2CCCNC(=O)[C@@H](Cc2ccc(Cl)cc2)NC(=O)[C@H](C(C)O)N(C)C1=O (some centres unmarked) [Compound 1715]
	10 to 100	CC[C@@H]1CCc2c(F)cccc2OCCN[C@@H](C(C)C)C(=O)N(C)[C@@H](C(C)O)C(=O)N[C@H](Cc2cccc(F)c2)C(=O)N1 (some centres unmarked) [Compound 1724]
	100 to 500	CC(C)C[C@@H]1NCCOc2ccccc2/C=C/CNC(=O)[C@@H](Cc2ccc(Cl)cc2)NC(=O)[C@H](C(C)O)N(C)C1=O (some centres unmarked) [Compound 1731]
	100 to 500	CC(O)[C@H]1C(=O)N[C@H](Cc2ccc(Cl)cc2)C(=O)NC/C=C/c2ccccc2OCCN[C@@H](CC(C)(C)C)C(=O)N1C (some centres unmarked) [Compound 1733]
	> 500	CC(O)[C@H]1C(=O)N[C@H](Cc2ccc(Cl)cc2)C(=O)N[C@@H](C)CCc2ccccc2O[C@H](C)CN[C@@H](C2CC2)C(=O)N1C (some centres unmarked) [Compound 1741]
